The structures appear in SMILES notation. Where only a bound is given, the exact number is not on record here.

The first assay concerns anti-PTX monoclonal antibody. Description: PTX analog interference test (cross reaction rate) on the time-resolved fluorescent immunochromatographic test strip. It counts as binding, mouse. The following applies: test concentration 100 ng/mL. How it is done:
20 ul of sample is accurately pipetted into 180 ul of sample diluent and mixed fully.
80 uL of sample solution to be tested is accurately pipetted into a test strip loading well with a micropipette, and reaction is carried out at room temperature (20-25° C.) for 15 min. The test strip is inserted into a load carrier of a fluorescence detector, an item to be tested is selected by touching a display screen, a “Detection Start” button is pressed, the fluorescence detector automatically scans the test strip, and a test result is read through the display screen of an instrument or printed.
Quantitative detection: after the test is completed, the instrument obtains the ratio of the time-resolved fluorescent intensity of the detection area on the test strip to the time-resolved fluorescent intensity of the quality control area. Based on a relationship curve of the ratio of the time-resolved fluorescent intensity of the detection area on the pre-built test strip to the time-resolved fluorescent intensity of the quality control area and the concentration of PTX drugs, the content of PTX drug in the sample to be tested is obtained, and finally, the content of the PTX drug in the sample to be tested is obtained by conversion.
The cross reaction rate is measured according to the method of Embodiment 2.
Several analogs of PTX are selected for interference testing.
Compound `CC(=O)O[C@H]1C(=O)[C@@]2(C)[C@H]([C@H](OC(=O)c3ccccc3)[C@]3(O)C[C@H](OC(=O)[C@H](O)[C@@H](NC(=O)c4ccccc4)c4ccccc4)C(C)=C1C3(C)C)[C@]1(OC(C)=O)CO[C@@H]1C[C@@H]2O` [Paclitaxel] came in with a Cross reaction rate of 100%.

The same assay, now with this note: test concentration 1,000 ng/mL.
For `CC(=O)OC1CC2(OC(C)=O)C(OC(C)=O)C3C4(CO4)C(O)CC(OC(C)=O)C3(C)C(OC(C)=O)C(OC(C)=O)C(=C1C)C2(C)C` (stereo not drawn) [1-Acetoxyl-5-deacetyl-baccatin I], the Cross reaction rate was below 0.01%.

For the compound `CC(=O)O[C@H]1C[C@@]2(O)[C@@H](OC(C)=O)[C@@H]3[C@@]4(CO4)[C@@H](OC(C)=O)C[C@H](OC(C)=O)[C@@]3(C)[C@@H](OC(C)=O)[C@H](OC(C)=O)C(=C1C)C2(C)C` [1-Hydroxybaccatin I], the Cross reaction rate is given as below 0.01%.

The compound `CC(=O)O[C@H]1C(=O)[C@]2(C)[C@@H](O[C@@H]3OC[C@@H](O)[C@H](O)[C@H]3O)C[C@H]3OC[C@@]3(OC(C)=O)[C@H]2[C@H](OC(=O)c2ccccc2)[C@]2(O)C[C@H](OC(=O)[C@H](O)[C@@H](NC(=O)c3ccccc3)c3ccccc3)C(C)=C1C2(C)C` [7-Xylosyltaxol] showed a Cross reaction rate below 1%.

For the compound `CC(=O)O[C@@]12CO[C@@H]1C[C@H](O)[C@@]1(C)C(=O)[C@H](O)C3=C(C)[C@@H](O)C[C@@](O)([C@@H](OC(=O)c4ccccc4)[C@H]21)C3(C)C` [10-Deacetyl-baccatin III], the Cross reaction rate is below 0.01%.

In turn, `CC(=O)OC1CC2(O)C(OC(=O)c3ccccc3)C3C4(OC(C)=O)COC4CC(O)C3(C)C(O)C(OC(C)=O)C(=C1C)C2(C)C` (stereo not drawn) [13-Acetyl-9-dihydrobaccatin III] displayed a Cross reaction rate below 0.01%.

On to `CC(=O)O[C@H]1C(=O)[C@@]2(C)[C@H]([C@H](OC(=O)c3ccccc3)[C@]3(O)C[C@H](O)C(C)=C1C3(C)C)[C@]1(OC(C)=O)CO[C@@H]1C[C@@H]2O` [Baccatin III], for which the Cross reaction rate is reported as below 0.01%.

`C/C=C(\C)C(=O)N[C@@H](c1ccccc1)[C@@H](O)C(=O)O[C@H]1C[C@@]2(O)[C@@H](OC(=O)c3ccccc3)[C@@H]3[C@]4(OC(C)=O)CO[C@@H]4C[C@H](O)[C@@]3(C)C(=O)[C@H](OC(C)=O)C(=C1C)C2(C)C` [Cephalomannine] returned a Cross reaction rate below 0.04%.

Compound `CC(=O)O[C@@]12CO[C@@H]1C[C@H](O)[C@@]1(C)C(=O)[C@H](O)C3=C(C)[C@@H](OC(=O)[C@H](O)[C@@H](NC(=O)OC(C)(C)C)c4ccccc4)C[C@@](O)([C@@H](OC(=O)c4ccccc4)[C@H]21)C3(C)C` [Docetaxel] registered a Cross reaction rate below 1%.

(Values after patent publication US11237158B2, “Time-resolved fluorescent immunochromatographic test strip for detecting paclitaxel drugs as well as preparation method and application thereof” (BEIJING DIAGREAT BIOTEC[…]., LTD., priority 2018, dated 2022).)
